Assay results published in patent publication US7863315B2, “2-indolinone derivatives as selective histone deacetylase inhibitors” (Shenzhen Chipscreen Biosciences, Ltd., priority 2008, dated 2011).

Assays:
Format in all cases: cell-based
[1] = test system: HDAC7 (Nur77 reporter gene); assay: HDAC subtype reporter gene assay, Nur77-promoter luciferase in HeLa cells; conditions: Homo sapiens, M-HeLa, read-out: % of SAHA Response for HDAC7 at 10 μM (Nur77 reporter gene), 24 hours
Protocol: (§1) Measurement of inhibition of HDAC subtypes activity in cells by reporter gene assay: HDAC subtype selectivity inhibition assay of tested compounds was carried out by several reporter gene assays experiments. Briefly, HeLa cells were seeded in 96-well plates the day before transfection to give a confluence of 50-80%. Cells were transfected with one of reporter gene plasmids containing a promoter sequences or response elements upstream of a luciferase gene construct using FuGene6 transfection reagent according to the manufacturer's instructions (Roche). The promoters or response elements including p21-promoter, gdf11-promoter, MEF-binding element (MEF2), Nur77-promoter were fused upstream to the luciferase gene reporter construct. For normalizing the transfection efficiency, a GFP expression plasmid was cotransfected. Cells were allowed to express protein for 24 hours followed by addition of individual compounds or the vehicle (DMSO). 24 hours later, the cells were harvested and the luciferase assays were performed using the luciferase assay kit according to the manufacturer's instructions (Promega). To normalize the data from the luciferase assays, GFP activity from transfected cells was measured in a microtiter-plate reading fluorimeter capable of excitation at a wavelength at 485 nm and detection of emitted light at 527 nm.

[2] = test system: HDAC class I (p21 reporter gene); assay: HDAC subtype reporter gene assay, p21-promoter luciferase in HeLa cells; conditions: Homo sapiens, M-HeLa, read-out: % of SAHA Response for HDAC class I at 10 μM (p21 reporter gene), 24 hours
Protocol: as §1

[3] = test system: HDAC3 (gdf11 reporter gene); assay: HDAC subtype reporter gene assay, gdf11-promoter luciferase in HeLa cells; conditions: Homo sapiens, M-HeLa, read-out: % of SAHA Response for HDAC3 at 10 μM (gdf11 reporter gene), 24 hours
Protocol: as §1

[4] = test system: HDAC4/5 (MEF2 reporter gene); assay: HDAC subtype reporter gene assay, MEF-binding element (MEF2) luciferase in HeLa cells; conditions: Homo sapiens, M-HeLa, read-out: % of SAHA Response for HDAC4/5 at 10 μM (MEF2 reporter gene), 24 hours
Protocol: as §1

Measured: Emax at 10 µM

O=C(CCCCCCC(=O)Nc1ccccc1)NO [SAHA, suberoylanilide hydroxamic acid, reference compound]
100%: all assays above
